According to patent publication US20070122830A1, “Prohibitin-directed diagnostics and therapeutics for cancer and chemotherapeutic drug resistance” (Aurelium BioPharma Inc., priority 2005, published 2007):
Like-named read-outs stand apart in the source and are kept apart here.

Experiments:
Type in all cases: cell-based, human
[1] = system: MDA Breast Cancer Cell Line; assay: MTT cytotoxicity assay, transfected MDA cells plus chemotherapeutic drug; conditions: for EC50 / fold change of EC50, Prohibitin vs Control / IC50: MDA cells; for sensitivity to drug of prohibitin siRNA treated cells compared to mock-treated cells / sensitivity to drug of prohibitin siRNA treated cells compared to controls / sensitivity to drug of prohibitin siRNA treated cells compared to mock controls: MDA; for sensitivity to drug of prohibitin siRNA treated cells compared to mock-treated cells: FIG. 9A-9H; for IC50: Homo sapiens
Protocol: (§1) For a typical siRNA transfection, 1 nmole of the annealed siRNA duplex was mixed with 1.4 ml of Opti-MEM reagent (Invitrogen). In another tube, […] of Oligofectamine reagent (Invitrogen, Carlsbad, Calif.) was mixed with […] of Opti-MEM. The two solutions were combined and mixed gently by inversion and incubated for 20 min. at RT. The resulting solution was added to the cultured cells drop by drop in a 10 cm dish (cells are approximately 40-50% confluent). The next day the transfected cells were trypsinized and seeded in 6 or 96-well plates and further incubated for the indicated amount of time (assay dependent) before further analysis.
(§2) RNA-transfected cells were seeded in triplicate into 96-well plates at 5×10^3 cells/well 48 hrs post-transfection. The cells were incubated for an additional 16 to 24 hrs before they were exposed to increasing concentrations of cytotoxic drugs. […] Appropriate dilutions were made in the respective media for each cell line. Following addition of drugs, incubation was continued for an additional 72 hrs. […] of MTT dye (5 mg/ml) were added into each well and the plate was further incubated at 37° C. for 4 hrs. The dye was solubilized with 10% Triton X-100, 0.01 N HCl and further incubated at 37° C. in the dark for 30 min. Cell viability was determined by measure of absorption at 570 nm in a Wallac multiwell plate reader (PerkinElmer, Inc., Boston, Mass.). The averages of triplicate wells were plotted using the Prism software (GraphPad Software, Inc., San Diego, Calif.).

[2] = system: SKOV3 Ovarian Cancer Cell Line; assay: MTT cytotoxicity assay, transfected SKOV3 cells plus chemotherapeutic drug; conditions: for EC50 / fold change of EC50, Prohibitin vs Control: SKOV3 cells; for fold change of EC50, Prohibitin vs Control: direction IS/IR in same cell (E54); for IC50: Homo sapiens, SK-OV-3, SKOV3 cells
Protocol: as §1, §2
Each table summarizes the results of an individual experiment performed in triplicate.

[3] = system: MCF-7 Breast Cancer Cell Line; assay: MTT cytotoxicity assay, transfected MCF-7 cells plus chemotherapeutic drug; conditions: for fold change of EC50, Prohibitin vs Control: direction IS/IR in same cell (E42); for sensitivity to drug of prohibitin siRNA treated cells: MCF-7, FIGS. 15A-15H
Protocol: as §1
as §2, with “Cell survival was determined using the MTT cytotoxicity assay (see, e.g., Tokuyama et al. (2005) Anticancer Res. 25(1A): 17-22). RNA-transfected” for “RNA-transfected”, “drugs. Doxorubicin (adriamycin), cisplatinum, taxol, vinblastin, vincristin, and mitoxantrone were all purchased from Sigma Corp. (St. Louis, Mo.).” for “drugs.”
Cell survival was determined as described in Example 3 above.

[4] = mock-transfected control, Table 3 experiment, read-out: EC50, Control
[5] = mock-transfected control, Table 4 experiment, read-out: EC50, Control
[6] = mock-transfected control, Table 5 experiment, read-out: EC50, Control
[7] = mock-transfected control, Table 6 experiment, read-out: EC50, Control
[8] = mock-transfected control, Table 7 experiment, read-out: EC50, Control
[9] = mock-transfected control, Table 8 experiment, read-out: EC50, Control
[10] = prohibitin (siRNA) transfected, Table 3 experiment, read-out: EC50, Prohibitin
[11] = prohibitin (siRNA) transfected, Table 4 experiment, read-out: EC50, Prohibitin
[12] = prohibitin (siRNA) transfected, Table 5 experiment, read-out: EC50, Prohibitin
[13] = prohibitin (siRNA) transfected, Table 6 experiment, read-out: EC50, Prohibitin
[14] = prohibitin (siRNA) transfected, Table 7 experiment, read-out: EC50, Prohibitin
[15] = prohibitin (siRNA) transfected, Table 8 experiment, read-out: EC50, Prohibitin
[16] = Table 3 experiment, direction IS/IR in same cell (E6)
[17] = Table 4 experiment, direction IS/IR in same cell (E12)
[18] = Table 5 experiment, direction IS/IR in same cell (E18)
[19] = Table 6 experiment, direction IS/IR in same cell (E24)
[20] = Table 7 experiment, direction IS/IR in same cell (E30)
[21] = Table 8 experiment, direction IS/IR in same cell (E36)
[22] = mock-transfected control, Table 10 experiment, read-out: EC50, Control
[23] = mock-transfected control, Table 11 experiment, read-out: EC50, Control
[24] = prohibitin (siRNA) transfected, Table 10 experiment, read-out: EC50, Prohibitin
[25] = prohibitin (siRNA) transfected, Table 11 experiment, read-out: EC50, Prohibitin
[26] = MCF-7 cells, prohibitin (siRNA) transfected, Table 9, read-out: EC50, Prohibitin

SMILES | EC50 [1, 10] | EC50 [1, 11] | EC50 [1, 12] | EC50 [1, 13] | EC50 [1, 15] | fold change of EC50, Prohibitin vs Control [1, 16] | fold change of EC50, Prohibitin vs Control [1, 19] | fold change of EC50, Prohibitin vs Control [1, 20] | sensitivity to drug of prohibitin siRNA treated cells compared to mock controls ([1]; FIGS. 13A-13H) | EC50 [2, 24] | EC50 [2, 25] | fold change of EC50, Prohibitin vs Control ([2]; Table 11 experiment) | EC50 [3, 26] | fold change of EC50, Prohibitin vs Control ([3]; MCF-7 cells, Table 9) | IC50 [1, 4] | IC50 [1, 5] | IC50 [1, 7] | IC50 [1, 8] | IC50 [1, 9] | IC50 [2, 22] | other results
N.N.[Cl][Pt][Cl] [Cisplatinum] | 189000 nM | 271000 nM | 124000 nM | 189000 nM | 57000 nM | 1.2 x | 1.1 x | 1.4 x | increased sensitivity | 26300 nM | 68800 nM | 1.4 x | 151000 nM | 1.3 x |  |  |  |  |  |  | EC50 [1, 4]: 255000 nM; EC50 [1, 5]: 374000 nM; EC50 [1, 6]: 94300 nM; EC50 [1, 7]: 164000 nM; EC50 [1, 8]: 76800 nM; EC50 [1, 9]: 29300 nM; EC50 [1, 14]: 54500 nM; fold change of EC50, Prohibitin vs Control [1, 17]: 1.4 x; fold change of EC50, Prohibitin vs Control [1, 18]: 1.3 x; fold change of EC50, Prohibitin vs Control [1, 21]: 1.9 x; sensitivity to drug of prohibitin siRNA treated cells compared to mock-treated cells [1]: increased sensitivity; sensitivity to drug of prohibitin siRNA treated cells compared to controls ([1]; FIGS. 10A-10H): more sensitive; EC50 [2, 22]: 22400 nM; EC50 [2, 23]: 50000 nM; EC50 ([3]; MCF-7 cells, mock-transfected control, Table 9, read-out: EC50, Control): 118000 nM; change in sensitivity to the drug, Prohibitin vs Control ([3]; MCF-7 cells, Table 9): IR (IR: “increased in resistance” to the drug)
COc1cccc2c1C(=O)c1c(O)c3c(c(O)c1C2=O)C[C@@](O)(C(=O)CO)C[C@@H]3O[C@H]1C[C@H](N)[C@H](O)[C@H](C)O1 [Doxorubicin] | 1.73 nM | 1.25 nM | 0.993 nM | 1.72 nM | 0.139 nM |  |  |  | increased sensitivity | 12.8 nM | 0.0123 nM |  | 30 nM |  | 1.46 nM | 0.873 nM | 2.25 nM | 0.232 nM | 0.177 nM | 21.3 nM | IC50 [1, 6]: 1.75 nM; sensitivity to drug of prohibitin siRNA treated cells compared to controls ([1]; FIG. 11A): increased sensitivity; sensitivity to drug of prohibitin siRNA treated cells compared to mock controls ([1]; FIGS. 14A-14H): more sensitive; IC50 [2, 23]: 0.0265 nM; sensitivity to drug of prohibitin siRNA treated cells [3]: more sensitive
CC(=O)O[C@H]1C(=O)[C@@]2(C)[C@H]([C@H](OC(=O)c3ccccc3)[C@]3(O)C[C@H](OC(=O)[C@H](O)[C@@H](NC(=O)c4ccccc4)c4ccccc4)C(C)=C1C3(C)C)[C@]1(OC(C)=O)CO[C@@H]1C[C@@H]2O [Taxol] | 515 nM | 301 nM | 6.55 nM | 6.19 nM | 12.7 nM | 2.6 x | 1.7 x | 1.9 x | increased the sensitivity | 0.536 nM | 1.09 nM | 1.7 x | 2.62 nM | 30.0 x | 200 nM | 316 nM | 10.8 nM | 8.32 nM | 19.2 nM | 0.895 nM | IC50 [1, 6]: 5.11 nM; EC50 [1, 14]: 4.38 nM; fold change of EC50, Prohibitin vs Control [1, 18]: 1.3 x; fold change of EC50, Prohibitin vs Control [1, 21]: 1.5 x; sensitivity to drug of prohibitin siRNA treated cells compared to mock controls ([1]; FIGS. 12A-12D): increased sensitivity; sensitivity to drug of prohibitin siRNA treated cells compared to mock controls ([1]; FIGS. 14A-14H): more sensitive; IC50 [2, 23]: 1.82 nM; sensitivity to drug of prohibitin siRNA treated cells [3]: more sensitive; increase in sensitivity to drug as compared to controls ([3]; MCF-7 cells treated with prohibitin siRNA, FIG. 15B): 30 fold
CC(=O)O[C@@]12CO[C@@H]1C[C@H](O)[C@@]1(C)C(=O)[C@H](O)C3=C(C)[C@@H](OC(=O)[C@H](O)[C@@H](NC(=O)OC(C)(C)C)c4ccccc4)C[C@@](O)([C@@H](OC(=O)c4ccccc4)[C@H]21)C3(C)C [Docetaxel] |  |  |  |  |  |  |  |  |  |  |  |  | 5.34 nM | 13.8 x |  |  |  |  |  |  | sensitivity to drug of prohibitin siRNA treated cells [3]: more sensitive
CC[C@]1(O)C[C@@H]2CN(CCc3c([nH]c4ccccc34)[C@@](C(=O)OC)(c3cc4c(cc3OC)N(C)[C@H]3[C@@](O)(C(=O)OC)[C@H](OC(C)=O)[C@]5(CC)C=CCN6CC[C@]43[C@@H]65)C2)C1 [Vinblastin] |  |  | 2550 nM |  |  |  |  |  |  |  |  |  |  |  |  |  |  |  |  |  | EC50 [1, 6]: 156 nM
S=P(N1CC1)(N1CC1)N1CC1 [Thiotepa] |  |  |  |  |  | 1.3 x | 1.2 x | 1.5 x | increased the sensitivity | 25000 nM | 13900 nM | 1.2 x |  |  | 600000 nM | 510000 nM | 628000 nM | 146000 nM | 159000 nM | 35000 nM | IC50 [1, 10]: 475000 nM; IC50 [1, 11]: 291000 nM; IC50 [1, 13]: 527000 nM; IC50 [1, 14]: 97100 nM; IC50 [1, 15]: 164000 nM; fold change of EC50, Prohibitin vs Control [1, 17]: 1.7 x; sensitivity to drug of prohibitin siRNA treated cells compared to mock-treated cells [1]: increased sensitivity; sensitivity to drug of prohibitin siRNA treated cells compared to controls ([1]; FIGS. 10A-10H): more sensitive; sensitivity to drug of prohibitin siRNA treated cells compared to mock controls ([1]; FIGS. 12A-12D): increased sensitivity; IC50 [2, 23]: 16500 nM
